Each structure is given as a SMILES string. pIC50: −log10 of the molar value.

A short description of the assay: Inhibition of Influenza A virus (A/PR 8/34 (H1N1)) hemagglutinin transfected in human HeLa cells assessed as reduction in low pH-indued polykaryon formation preincubated for 15 mins followed by pH 5.2 buffer addition and measured after 5 mins by giemsa staining based microscopic analysis.

As a reminder, the pIC50 is −log10 of the IC50, conventionally taken in molar units. Turning to `COC(=O)C[C@H](NC(=O)OC(C)(C)C)C(=O)N(Cc1ccc(F)cc1)C1(C(=O)NCc2ccccc2)CCN(Cc2ccccc2)CC1`, the pIC50 is 4.92.
